Test results reported in US20240374563A1, “ANTICHOLINERGIC COMPOUNDS FOR USE IN TREATING NEUROMUSCULAR DISORDERS” (UNIVERSITY OF MONTRÉAL, priority 2022, published 2024).

Legend:
SOD1^G37R mice [1] = experiment: NMJ innervation status and NMJ repair signs by immunohistochemistry; assay type: in vivo, mouse
Description: We characterized EDL innervation status, a vulnerable fast-twitch muscle in ALS [3, 25-27], by classifying NMJs into fully innervated, partially innervated and denervated NMJs (FIG. 2A).
Neuromuscular innervation: Immunostaining was performed on EDL and SOL muscle previously described. Briefly, NMJs were labeled to visualise the axon terminal, Schwann cells and the post-synaptic receptors. The presynaptic element was labeled using an anti-synaptic vesicular protein 2 (SV2, 1:2000, Developmental Studies Hybridoma Bank) and an anti-neurofilament M, (NF-M, 1:1000, Rockland Immunochemicals Inc). PSCs and Schwann cells were labeled with anti-S100β antibody (1:4, Z0311, Dako) and post-synaptic receptors with Alexa594-conjugated-α-BTX (1.33 μg/ml, Molecular Probes, Fischer Scientific, Canada).
Observations and image acquisition were obtained using a Zeiss LSM 880 confocal microscope, with a 63× oil immersion objective (N.A. 1.4) or an Olympus FV 1000, with either a 63× oil immersion objective or a 20× water immersion objective (respectively N.A. 0.95 and 0.90). No image manipulations were performed after acquisition, except for brightness and contrast adjustments for figure presentation.

SOD1^G37R mice [2] = experiment: EDL muscle fatigue protocol and 30 min recovery; assay type: in vivo, mouse
Description: In addition to the force generated, a muscle is also characterised by its resistance to fatigue. For instance, fast-twitch muscles composed of a majority of fast fatigable motor units like the EDL, is their great fatigability. In ALS, alteration at the type of innervation (from fast to slow twitch) and in the properties of muscles themselves alter the fatigue properties, rendering them more resistant. […] We used a fatigue stimulation protocol, followed by a 30 min recovery period (FIG. 6A). […] However, we found no difference in the rate of fatigue of muscle contractions generated by motor nerve stimulation (FIG. 6C; Dari N=8, Placebo N=8; p>0.05, Repeated two-way ANOVA). […] There was no difference in the rate of recovery following the fatigue protocol between the darifenacin-treated mice and the placebo-treated ones (FIG. 6B-C; Dari N=8, Placebo N=8; p>0.05, Repeated two-way ANOVA).
Finally, we investigated the fatigue properties of the EDL muscle following darifenacin pre-onset treatment. As mentioned earlier, fast-twitch muscles like the EDL are very strong but are normally highly fatigable. However, in ALS, a gradual resistance to fatigue of fast-twitch muscles have been unraveled, following progression of disease pathogenesis. We used a fatigue stimulation protocol (180 trains at 120 Hz-300 ms), followed by a 30 min recovery period (see FIG. 6A) to investigate treatment impact on EDL fatigue properties. […] The strong resistance of the muscle to fatigue probably reflected the high rate of denervation of the EDL muscle at the symptomatic stage in both darifenacin-and placebo-treated mice.
Muscle fatigue: The fatigue protocol is illustrated in FIG. 6A. The fatigue protocol was adapted to each muscle owing to the differences in their intrinsic properties. For the EDL, fatigue was tested using a bout of 180 nerve stimulations for a duration of 300 ms, elicited at a frequency of 120 Hz. The rest period between each stimulation was 700 ms, for a total protocol duration of 3 min. Muscular stimulations were super-imposed to nerve stimulations every 10 stimulations (18 simultaneous nerve-muscle stimulations), to evaluate muscular reserve. The fatigue protocol for the SOL consisted of a bout of 300 nerve stimulations for 500 ms at 50 Hz, with a rest period of 600 ms between stimulations, for a total duration of 5 min 30. Muscular stimulations were super-imposed to nerve stimulations every 10 stimulations (30 simultaneous nerve-muscle stimulations).
Each fatigue protocol was followed by a 30 min recovery period during which muscular and neuromuscular contractile force were measured at the following latencies (after the end of the fatigue protocol): 5 s, 10 s, 15 s, 30 s, 45 sec, 1 min, 1.5 min, 2 min, 2.5 min, 5 min, 10 min, 20 min and 30 min.

[3] = test system: PSC muscarinic receptors (mAChRs); details: SOD1 mice, 15 mg/kg for 30 days; SOL muscle
Text: Mice were then sacrificed, and muscles dissected with their innervation and placed in a physiological recording chamber. We performed Ca^2+ imaging on the SOL muscle to evaluate PSCs synaptic detection of neurotransmission elicited by motor nerve stimulation (50 Hz-5 sec) or local applications of the mAChRs agonist muscarine for the treated and the placebo groups.
Preparations of SOL muscles and their innervation were dissected and pinned in a Sylgard-coated experimental chamber filled with an oxygenated Ree's solution (in mM, all Sigma), as follows: 110 NaCl, 5 KCl, 1 MgCl2, 25 NaHCO3, 2 CaCl2, 11 glucose, 0.3 glutamic acid, 0.4 glutamine, 5 BES (N,N-Bis(2-hydroxyethyl)-2-aminoethanesulfonic acid sodium salt), 0.036 choline chloride, and 4.34×10^−7 cocarboxylase. Nerve-muscle preparations were incubated for 90 min (2×45 min) in a preoxygenated saline solution containing 10 μM fluo-4AM (Invitrogen) and 0.02% pluronic acid (Invitrogen). After the loading, nerve muscle preparations were constantly perfused with a warm (26-28° C.) oxygenated Ree's solution (95% O2, 5% CO2). Basel level of fluorescence was always set within the same range of arbitrary units, using the same software and hardware settings. Changes in fluorescence were measured over PSC soma and expressed as follows: % ΔF/F=(F-Frest)/Frest×100. Experiments were discarded when focus drift occurred. […]

SOD1^G37R mice [4] = experiment: Survival cohort; details: continuous treatment from disease onset (P450) until end stage; N=10
[5] = EDL, pre-onset treatment P400 until P480
[6] = EDL, treatment from disease onset (P450), 10 mg/kg orally, to P520
[7] = EDL, treatment from disease onset, 10 mg/kg orally
[8] = pre-onset treatment P400 until P520

**Q.** Which results are given for `NC(=O)C(c1ccccc1)(c1ccccc1)[C@@H]1CCN(CCc2ccc3c(c2)CCO3)C1` [darifenacin]?
**A.** animals in which glial process extensions were seen (SOD1^G37R mice [1]; [5]): 5 out of 6; percentage of denervated NMJs (SOD1^G37R mice [1]; [5]): 15.7±5.9%; percentage of partially innervated NMJs (SOD1^G37R mice [1]; [5]): 33.9±5.1%; percentage of fully innervated NMJs (SOD1^G37R mice [1]; EDL, pre-onset treatment P400 until P480, N=6, n=145): 50.4±9.2%; percentage of denervated NMJs (SOD1^G37R mice [1]; EDL, treatment from disease onset (P450), 10 mg/kg orally 5 days a week, to P520, N=7, n=293): 5.6±1.8%; percentage of fully innervated NMJs (SOD1^G37R mice [1]; [6]): 70.1±4.2%; percentage of partially innervated NMJs (SOD1^G37R mice [1]; [6]): 24.2±4.0%; percentage of NMJs presenting nerve sprouting (SOD1^G37R mice [1]; [7]): 21.5±4.3%; percentage of NMJs with glial processes alone (SOD1^G37R mice [1]; [7]): 2.2±1.8%; percentage of NMJs with polyinnervation (SOD1^G37R mice [1]; [7]): 6.4±2.8; NMJ repair signs (nerve sprouting, polyinnervation, glial processes) vs placebo (SOD1^G37R mice [1]; SOL and EDL, pre-onset treatment P400 until P480): no evidence of significant difference; percentage of partially innervated NMJs (SOD1^G37R mice [1]; SOL, pre-onset treatment P400 until P480): 34.9±8.6%; percentage of fully innervated NMJs (SOD1^G37R mice [1]; SOL, pre-onset treatment P400 until P480, N=4, n=118): 60.5±8.2%; rate of fatigue generated by muscle stimulation vs placebo (SOD1^G37R mice [2]; [8]): no difference; rate of recovery following the fatigue protocol vs placebo (SOD1^G37R mice [2]; [8]): comparable; rate of fatigue of contractions generated by motor nerve stimulation vs placebo (SOD1^G37R mice [2]; treatment from disease onset): no difference; rate of recovery following the fatigue protocol vs placebo (SOD1^G37R mice [2]; treatment from disease onset): no difference; EDL fatigue on direct muscle stimulation (SOD1^G37R mice [2]; treatment from disease onset, p<0.01 vs placebo): more typical for this type of fast twitch muscle; PSCs muscarinic activation [3]: greatly abolished; median lifespan (SOD1^G37R mice [4]): 551 days
